Test results published in ChEMBL document CHEMBL1136927, “Nonsteroidal selective androgen receptor modulators (SARMs): dissociating the anabolic and androgenic activities of the androgen receptor for therapeutic benefit” (J Med Chem, 2009).

Columns and labels:
[1] = species on record: Rattus norvegicus; experiment: Myotropic activity in rat assessed as ventral prostate weight by Hershberger assay relative to intact tissue; type: functional, Prostate gland
[2] = species on record: Rattus norvegicus; experiment: Myotropic activity in rat assessed as seminal vesicle weight by Hershberger assay relative to intact tissue; type: functional; settings: for Emax: Rattus norvegicus, Seminal vesicle
[3] = species on record: Rattus norvegicus; experiment: Myotropic activity in intact rat assessed as reduction in ventral prostate weight by Hershberger assay; type: functional, Prostate gland; parameters: scale not given: the % may be the effect or the level left
[4] = species on record: Rattus norvegicus; experiment: Myotropic activity in rat assessed as levator ani muscle weight by Hershberger assay relative to intact tissue; type: functional
[5] = target: T1, Androgen receptor (Homo sapiens, UniProt P10275)
T1 sequence (P10275 whole entry): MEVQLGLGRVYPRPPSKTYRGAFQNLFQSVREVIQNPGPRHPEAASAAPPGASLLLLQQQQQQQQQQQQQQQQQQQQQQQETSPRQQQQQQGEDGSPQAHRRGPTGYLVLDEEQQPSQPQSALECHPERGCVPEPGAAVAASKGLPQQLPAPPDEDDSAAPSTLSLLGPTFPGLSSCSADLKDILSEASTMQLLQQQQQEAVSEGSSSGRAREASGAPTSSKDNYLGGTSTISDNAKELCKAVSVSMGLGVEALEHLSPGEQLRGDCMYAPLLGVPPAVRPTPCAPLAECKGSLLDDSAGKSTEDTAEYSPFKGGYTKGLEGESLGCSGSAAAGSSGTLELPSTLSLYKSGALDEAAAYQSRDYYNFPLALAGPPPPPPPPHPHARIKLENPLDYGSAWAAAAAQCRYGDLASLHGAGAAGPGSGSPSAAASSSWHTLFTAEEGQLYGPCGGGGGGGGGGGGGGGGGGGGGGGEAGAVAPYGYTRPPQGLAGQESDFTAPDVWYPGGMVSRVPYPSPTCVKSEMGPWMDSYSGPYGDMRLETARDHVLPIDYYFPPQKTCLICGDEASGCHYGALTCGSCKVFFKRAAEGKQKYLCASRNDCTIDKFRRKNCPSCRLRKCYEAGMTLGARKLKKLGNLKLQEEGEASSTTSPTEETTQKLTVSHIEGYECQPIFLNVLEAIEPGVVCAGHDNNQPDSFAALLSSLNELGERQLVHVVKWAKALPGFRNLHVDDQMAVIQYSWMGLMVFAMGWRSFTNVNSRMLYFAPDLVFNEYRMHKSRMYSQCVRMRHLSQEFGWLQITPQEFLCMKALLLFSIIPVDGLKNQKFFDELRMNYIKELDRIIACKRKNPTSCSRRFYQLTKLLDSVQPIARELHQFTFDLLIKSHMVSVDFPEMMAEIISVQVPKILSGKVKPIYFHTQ
Description: Agonist activity at androgen receptor

[6] = species on record: Rattus norvegicus; experiment: Restoration of lean body mass in intact rat; type: functional
[7] = test system: Rattus norvegicus; experiment: Myotropic activity in rat assessed as ventral prostate weight by modified Hershberger assay at 3 mg/kg; type: functional; settings: Prostate gland
[8] = Half life in human; type: ADME, organism-based; settings: in vivo
[9] = species on record: Rattus norvegicus; experiment: Myotropic activity in rat assessed as levator ani muscle weight at 10 mg/day by Hershberger assay relative to intact tissue; type: functional
[10] = test system: Rattus norvegicus; experiment: Myotropic activity in rat assessed as ventral prostate weight at 100 mg/kg by Hershberger assay; type: functional; settings: Prostate gland
[11] = test system: Rattus norvegicus; experiment: Myotropic activity in rat assessed as ventral prostate weight at 10 mg/kg by Hershberger assay; type: functional; settings: Prostate gland
[12] = Oral bioavailability in rat at 10 mg/kg; type: ADME, organism-based; settings: in vivo
[13] = Clearance in iv dosed rat; type: ADME, organism-based; settings: in vivo
[14] = Volume of distribution at steady state in iv dosed rat; type: ADME, organism-based; settings: in vivo, read-out: Vdss
[15] = Terminal half life in iv dosed rat; type: ADME, organism-based; settings: in vivo, read-out: beta t1/2 (converted)
[16] = test system: Rattus norvegicus; experiment: Suppression of hyphalamic-pituitary-gonadal axis in rat at 3 mg/kg; type: functional
[17] = test system: Rattus norvegicus; experiment: Myoanabolic activity in castrated rat assessed as restored soleus muscle strength at 3 mg/kg; type: functional
[18] = species on record: Rattus norvegicus; experiment: Osteoanabolic effect in rat assessed as reduction in osteocalcin level relative to basal level; type: functional; parameters: scale not given: the % may be the effect or the level left
[19] = test system: Rattus norvegicus; experiment: Myotropic activity in rat assessed as ventral prostate weight at 3 mg/kg administered in 12 week atrophy followed by 8 weeks treatment schedule by Hershberger assay; type: functional, Prostate gland
[20] = test system: Rattus norvegicus; experiment: Myoanabolic activity in castrated rat assessed as restored soleus muscle strength at 10 mg/kg; type: functional
[21] = Oral bioavailability in dog; type: ADME, organism-based, Canis lupus familiaris; settings: in vivo
[22] = species on record: Rattus norvegicus; experiment: Suppression of hyphalamic-pituitary-gonadal axis in rat; type: functional
[23] = species on record: Rattus norvegicus; experiment: Myotropic activity in rat assessed as levator ani muscle weight at 30 mg/day by Hershberger assay relative to intact tissue; type: functional
[24] = test system: Rattus norvegicus; experiment: Myotropic activity in rat assessed as ventral prostate weight at 30 mg/kg by Hershberger assay; type: functional; settings: Prostate gland
[25] = species on record: Rattus norvegicus; experiment: Myotropic activity in rat assessed as levator ani muscle weight at 3 mg/day by modified Hershberger assay relative to intact tissue; type: functional
[26] = species on record: Rattus norvegicus; experiment: Myotropic activity in rat assessed as ventral prostate weight at 0.3 mg/day by Hershberger assay; type: functional, Prostate gland
[27] = species on record: Rattus norvegicus; experiment: Reduction in testes weight in intact rat at 5 ug/day; type: functional, Testis; parameters: scale not given: the % may be the effect or the level left
[28] = test system: Rattus norvegicus; experiment: Myotropic activity in rat assessed as ventral prostate weight by modified Hershberger assay at 10 mg/kg; type: functional; settings: Prostate gland
[29] = test system: Rattus norvegicus; experiment: Suppression of hyphalamic-pituitary-gonadal axis in rat assessed as reduction in follicle-stimulating hormone level at 30 mg/kg; type: functional
[30] = Rattus norvegicus, Levator ani muscle
[31] = Rattus norvegicus, Levator ani muscle, read-out: ED50
[32] = Rattus norvegicus, Prostate gland
[33] = Rattus norvegicus, Prostate gland, read-out: ED50

CC(=O)Nc1ccc(SC[C@](C)(O)C(=O)Nc2ccc(C#N)c(C(F)(F)F)c2)cc1 [ACETOTHIOLUTAMIDE]
Activity [1]: 20%
Activity [2]: 50%

C=C[C@@](O)(c1nc2cc(Cl)c(Cl)cc2[nH]1)C(F)(F)F
Activity [3]: 46%
Emax [4, 30]: 101%
ED50 [4, 31]: 0.8 mg/kg
Ki [5]: 1.1 nM
Activity [6]: 20%
Emax at 3 mg/kg [7]: 21%

C[C@](O)(CS(=O)(=O)c1ccc(F)cc1)C(=O)Nc1ccc(C#N)c(C(F)(F)F)c1 [(R)-BICALUTAMIDE]
half-life [8]: 140 h

CCC(=O)O[C@H]1CC[C@H]2[C@@H]3CCC4=CC(=O)CC[C@]4(C)[C@H]3CC[C@]12C [TESTOSTERONE PROPIONATE]
ED50 [1]: 0.13 mg/day
Emax [1, 32]: 120%
Emax [4, 30]: 104%
ED50 [2]: 0.12 mg/day
Emax [2]: 70%

C[C@@]12CC(C(F)(F)F)=NN1C(=O)N(c1ccc(C#N)c(C(F)(F)F)c1)C2=O
ED50 [4]: 2.9 mg/day
Emax [4, 30]: 75%
Emax at 3 mg/kg [7]: 11%

C[C@]12CC[C@H]3[C@@H](CCC4=CC(=O)CC[C@@]43C)[C@@H]1CC[C@@H]2O [TESTOSTERONE]
ED50 [1]: 0.13 mg/day
Emax [1, 32]: 120%
ED50 [4]: 0.15 mg/day
Emax [4, 30]: 104%

CC[C@@H]1COc2c(ccc3[nH]c(=O)cc(C(F)(F)F)c23)N1CC(F)(F)F
Emax [9]: 100%
Emax at 100 mg/kg [10]: 80%
ED50 [4]: 70 mg/day

C[C@@H]1CC[C@H]([C@@H](O)C(F)(F)F)N1c1ccc2[nH]c(=O)cc(C(F)(F)F)c2c1 [LGD-2941]
Emax at 10 mg/kg [11]: 100%
Emax [9]: 180%

C[C@](O)(COc1ccc(F)cc1)C(=O)Nc1ccc([N+](=O)[O-])c(C(F)(F)F)c1
bioavailability [12]: 55%
ED50 [1]: 0.42 mg/day
Emax [1, 32]: 14.9%
clearance [13]: 3.6 mL/min/kg
Vd [14]: 1.5 L/kg
ED50 [4]: 0.44 mg/day
Emax [4, 30]: 75%
ED50 [2]: 0.38 mg/day
Emax [2]: 13.4%
half-life [15]: 3.6 h

O=c1cc(C(F)(F)F)c2cc(N(CC(F)(F)F)CC(F)(F)F)ccc2[nH]1
Emax at 3 mg/kg [16]: 100%
Emax at 100 mg/kg [10]: 100%
Emax [4, 30]: 150%

CC(=O)Nc1ccc(OC[C@](C)(O)C(=O)Nc2ccc([N+](=O)[O-])c(C(F)(F)F)c2)cc1
Activity [17]: 120 kN/m2
bioavailability [12]: 100%
ED50 [1]: 0.43 mg/day
Emax [1, 32]: 35.2%
clearance [13]: 1 mL/min/kg
Activity [18]: 70%
Activity [19]: 20%
Vd [14]: 0.42 L/kg
Activity [20]: 156 kN/m2
ED50 [4]: 0.14 mg/day
Emax [4, 30]: 101%
ED50 [2]: 0.55 mg/day
Emax [2]: 28.5%
bioavailability [21]: 91%
half-life [15]: 2.6 h

Cc1c(N2C(=O)[C@@H]3[C@H](O)CCN3C2=O)ccc(C#N)c1Cl
Emax [1, 32]: 105%
ED50 [1, 33]: 0.14 mg/kg
Emax [4, 30]: 125%
ED50 [4, 31]: 0.009 mg/kg
ED50 [22]: 0.008 mg/kg

CN(C)C1CC(C(C)(C)CO)Nc2ccc([N+](=O)[O-])cc21 (configuration not stated)
Emax [23]: 115%
Emax at 30 mg/kg [24]: 80%

CC[C@H]1[C@@H]2[C@@H](O)CCN2C(=O)N1c1ccc(C#N)c(Cl)c1C
Emax [1, 32]: 65%
ED50 [1, 33]: 4.6 mg/kg
Emax [4, 30]: 120%
ED50 [4, 31]: 0.09 mg/kg

C[C@@]12CC(C(F)(F)F)=NN1[S+]([O-])N(c1ccc(C#N)c(C(F)(F)F)c1)C2=O (some centres not stated)
Emax [25]: 117%
Emax at 3 mg/kg [7]: 58%

Cc1c(N2C(=O)[C@@H]3[C@H](O)CCN3S2(=O)=O)ccc(C#N)c1Cl
Emax at 10 mg/kg [11]: 8%
Emax [9]: 68%

N#Cc1ccc(N2[C@@H]3CC[C@H]2C[C@@H](O)C3)c2ccccc12
Emax [4, 30]: 66%
ED50 [4, 31]: 17.3 mg/kg
Emax at 30 mg/kg [24]: 27%
ED50 [22]: 2.8 mg/kg
Emax [22]: 117%

C[C@](O)(COc1ccc(Cl)c(F)c1)C(=O)Nc1ccc(C#N)c(C(F)(F)F)c1
bioavailability [12]: 96%
ED50 [1]: 0.43 mg/day
Emax [1, 32]: 138%
clearance [13]: 0.87 mL/min/kg
Vd [14]: 0.66 L/kg
Emax [4, 30]: 139%
ED50 [2]: 0.41 mg/day
Emax [2]: 144%
Activity [26]: 79.4%
half-life [15]: 11.9 h
Activity [27]: 94%

C[C@]12CC(C(F)(F)F)=NN1C(N)=N/C2=N\c1ccc(C#N)c(C(F)(F)F)c1
Activity [3]: 26%
Emax [1, 32]: 31%
ED50 [1, 33]: > 30 mg/kg
Emax [4, 30]: 91%
ED50 [4, 31]: 2.8 mg/kg

C[C@@]1(C(=O)Nc2ccc(C#N)c(C(F)(F)F)c2)CC(C(F)(F)F)=NN1
Emax [9]: 100%
Emax at 10 mg/kg [28]: 26%
ED50 [4, 31]: 3.8 mg/kg
Emax at 30 mg/kg [29]: 40%

C[C@]12CCC(=O)C[C@@H]1CC[C@@H]1[C@@H]2CC[C@]2(C)[C@@H](O)CC[C@@H]12 [STANOLONE]
Activity [17]: 138 kN/m2
Activity [18]: 50%
Activity [19]: 200%
